Where two headings read alike, the source gives them in different places.
How the values were obtained:
wild-type HIV-1 protease = wild-type HIV-1 protease (Human immunodeficiency virus type 1 group M subtype B, UniProt P04585); test: Assay for inhibition of microbial expressed HIV protease; type: biochemical
Experimental: Assay for Inhibition of Microbial Expressed HIV Protease
Inhibition studies of the reaction of the protease (which was expressed in Eschericia coli) with a peptide substrate [Val-Ser-Gln-Asn-(betanapthyl)Ala-Pro-Ile-Val]. The inhibitor is first preincubated with the enzyme in assay buffer (50 mM sodium acetate, pH 5.5, 100 mM NaCl, and 0.1% BSA) for 30 minutes at room temperature. Substrate is added to 440 micromolar in a total volume of 80 microliters containing 5 picomolar HIV-1 protease, and the reaction is incubated for 1 hour at 30° C. The reaction is quenched by addition of 120 microliters of 10% phosphoric acid, and product formation is determined after separation of product and substrate on a Vydac C18 column connected to an Alliance high performance liquid chromatography system (Waters Corporation). The extent of inhibition of the reaction is determined from the peak area of the products.

[1] = tested on: acute HIV infection of T-lymphoid cells; test: Assay for inhibition of HIV replication (spread assay); type: cell-based, HIV-1; conditions: Human immunodeficiency virus 1, T-lymphoid; read-out: Spread - IC95
Experimental: • Assay for Inhibition of HIV Replication
Assays for the inhibition of acute HIV infection of T-lymphoid cells were conducted in accordance with Vacca, J. P. et al., Proc. Natl. Acad. Sci. USA 1994, 91: 4096.

[2] = wild-type HIV-1 protease expressed in E. coli, peptide substrate, pH 5.5, read-out: Enzyme Inhibition - IC50

Row | SMILES | IC50 (wild-type HIV-1 protease; [2]) | IC95 [1] | IC50 (wild-type HIV-1 protease)
1 | CC[C@@H](CCC[C@@H](CO)N(CC(C)C)S(=O)(=O)c1ccc(N)cc1)NC(=O)[C@@H](NC(=O)OC)C(c1ccccc1)c1ccccc1 [Example D11, N-{(1S,5S)-5-[[(4-aminophenyl)sulfonyl](isobutyl)amino]-1-ethyl-6-hydroxyhexyl}-Nα-(methoxycarbonyl)-β-phenyl-L-phenylalaninamide] | 0.109 nM | 18 nM | 
2 | COC(=O)N[C@H](C(=O)N[C@@H](C)CCC[C@@H](CO)N(CCC(C)C)S(=O)(=O)c1ccc(N)c(F)c1)C(c1ccccc1)c1ccccc1 [Example D12, N-{(1S,5S)-5-[[(4-amino-3-fluorophenyl)sulfonyl](3-methylbutyl)amino]-6-hydroxy-1-methylhexyl}-Nα-(methoxycarbonyl)-β-phenyl-L-phenylalaninamide] | 0.012 nM | 6 nM | 
3 | CCC[C@@H](CCC[C@@H](CO)N(CCCF)S(=O)(=O)c1ccc(N)cc1)NC(=O)[C@@H](NC(=O)OC)C(c1ccccc1)c1ccccc1 [Example D13, N-{(1S,5S)-5-[[(4-aminophenyl)sulfonyl](3-fluoropropyl)amino]-6-hydroxy-1-propylhexyl}-Nα-(methoxycarbonyl)-β-phenyl-L-phenylalaninamide] | 0.867 nM | 213 nM | 
4 | COC(=O)N[C@H](C(=O)N[C@H](CCC[C@@H](CO)N(CC(C)C)S(=O)(=O)c1ccc(N)cc1)C(C)C)C(c1ccccc1)c1ccccc1 [Example D14, N-{(1R,5S)-5-[[(4-aminophenyl)sulfonyl](isobutyl)amino]-6-hydroxy-1-isopropylhexyl}-Nα-(methoxycarbonyl)-β-phenyl-L-phenylalaninamide] | 0.519 nM | 95 nM | 
5 | CC[C@@H](CCC[C@@H](CO)N(CCCF)S(=O)(=O)c1ccc(N)cc1)NC(=O)[C@@H](NC(=O)OC)C(c1ccccc1)c1ccccc1 [Example D15, N-{(1S,5S)-5-[[(4-aminophenyl)sulfonyl](3-fluoropropyl)amino]-1-ethyl-6-hydroxyhexyl}-Nα-(methoxycarbonyl)-β-phenyl-L-phenylalaninamide] | 0.268 nM | 39 nM | 
6 | COC(=O)N[C@H](C(=O)N[C@H](CCC[C@@H](CO)N(CCC(C)C)S(=O)(=O)c1ccc(N)c(F)c1)C(C)C)C(c1ccccc1)c1ccccc1 [Example D16, N-{(1R,5S)-5-[[(4-amino-3-fluorophenyl)sulfonyl](3-methylbutyl)amino]-6-hydroxy-1-isopropylhexyl}-Nα-(methoxycarbonyl)-β-phenyl-L-phenylalaninamide] | 0.329 nM | 152 nM | 
7 | CC[C@@H](CCC[C@@H](CO)N(CCC(C)C)S(=O)(=O)c1ccc(N)c(Br)c1)NC(=O)[C@@H](NC(=O)OC)C(c1ccccc1)c1ccccc1 [Example D17, N-{(1S,5S)-5-[[(4-amino-3-bromophenyl)sulfonyl](3-methylbutyl)amino]-1-ethyl-6-hydroxyhexyl}-Nα-(methoxycarbonyl)-β-phenyl-L-phenylalaninamide] | 0.38 nM | 154 nM | 
8 | COC(=O)N[C@H](C(=O)N[C@H](CCC[C@@H](CO)N(CCC(C)C)S(=O)(=O)c1ccc(N)cc1)C1CC1)C(c1ccccc1)c1ccccc1 [Example E1] |  | 11 nM | 0.03 nM
9 | COC(=O)N[C@H](C(=O)N[C@H](CCC[C@@H](CO)N(CCC(C)C)S(=O)(=O)c1ccc(CO)c(F)c1)C1CC1)C(c1ccc(F)cc1)c1ccc(F)cc1 [Example E2, N-{(1R,5S)-1-cyclopropyl-5-[{[3-fluoro-4-(hydroxymethyl)phenyl]sulfonyl}(3-methylbutyl)amino]-6-hydroxyhexyl}-4-fluoro-β-(4-fluorophenyl)-Nα-(methoxycarbonyl)-L-phenylalaninamide] | 0.017 nM | 39 nM | 
10 | COC(=O)N[C@H](C(=O)N[C@H](CCC[C@@H](CO)N(CCC(C)C)S(=O)(=O)c1ccc(N)c(F)c1)C1CC1)C(c1ccccc1)c1ccccc1 [Example E3, N-{(1R,5S)-5-[[(4-amino-3-fluorophenyl)sulfonyl](3-methylbutyl)amino]-1-cyclopropyl-6-hydroxyhexyl}-Nα-(methoxycarbonyl)-β-phenyl-L-phenylalaninamide] | 0.057 nM | 11 nM | 

Reference: patent US20100093811A1 (priority 2007, published 2010)
